In publication PMC6540076 (Drug Design, Development and Therapy, 2019):
Marks after values point to notes of the source that are not given here.

Columns and labels:
[1] = test system: carrageenan-induced paw edema; experiment: Carrageenan-induced rat-paw-edema assay; type: in vivo, rats; settings: for Potency (%): calculated compared to the reference drug naproxen; for Edema (%): compounds 5 mg/kg orally, naproxen 2.5 mg/kg orally, in DMSO, mean ± SE of six rats
[2] = test system: tail-withdrawal latency; experiment: Tail-flick latency test; type: in vivo, rats; settings: for Latency (seconds) / Latency: compounds 5 mg/kg orally, naproxen 2.5 mg/kg orally, in DMSO, mean ± SE of six rats; for Potency (%): analgesic potency after 120 minutes compared with the reference drug naproxen
[3] = test system: tumor-bearing rats; settings: cited from earlier work
[4] = test system: gastric ulceration; settings: naproxen 2.5 mg/kg orally, tested compounds 5 mg/g orally in DMSO
[5] = after 1 hour of induced inflammation
[6] = throughout the entire experiment

Row | SMILES | Potency (%) ([1]; 1 hour) | Edema (%) ([1]; 1 hour) | Potency (%) ([1]; 2 hours) | Edema (%) ([1]; 2 hours) | Potency (%) ([1]; 3 hours) | Edema (%) ([1]; 3 hours) | Potency (%) ([1]; 4 hours) | Edema (%) ([1]; 4 hours) | anti-inflammatory activity (in words) [1, 5] | Latency (seconds) ([2]; 30 minutes) | Latency (seconds) ([2]; 60 minutes) | Latency (seconds) ([2]; 120 minutes) | Potency (%) [2] [%] | Latency ([2]; 30 minutes) [s] | anti-inflammatory potency relative to the reference drug ([1]; compared to naproxen) | anti-inflammatory activity relative to naproxen ([1]; entire experiment, after 4 hours) [times] | anti-inflammatory activity (in words) [1, 6] | anti-inflammatory potency (in words) ([1]; after 2, 3, and 4 hours of induced inflammation, compared to the reference drug) | reduction of rate of tumor growth [3] [%] | ulcerogenic effect, macroscopic examination of the stomach [4]
1 | COc1ccc2cc(C(C)C(=O)NC(=S)NC(C)C(=O)O)ccc2c1 (centres unmarked) [Compound 5, 2-(3-(2-(6-methoxynaphthalen-2-yl)propanoyl)thioureido)propanoic acid] | 102.5 | 21.2±1.66 | 64.6 | 30.4±1.19 | 71.1 | 33.7±1.68 | 71.7 | 32.8±1.40 | highest anti-inflammatory activity | 3.9±0.3^b seconds | 3.9±0.4^b seconds | 3.9±0.2^b seconds | 55.7 | – | – | – | – | – | – | –
2 | COc1ccc2cc(C(C)C(=O)NC(=S)NCCC(=O)O)ccc2c1 (centres unmarked) [Compound 6, 3-(3-(2-(6-methoxynaphthalen-2-yl)propanoyl)thioureido)propanoic acid] | 67.6 | 24.6±2.39 | 60.0 | 31.4±2.46 | 64.4 | 35.1±2.99 | 60.3 | 35.3±3.06 | moderate potency | – | 4.0±0.2^b seconds | 4.2±0.3^b seconds | 60.0 | 4.6 ± 0.3 | – | – | – | – | – | –
3 | COc1ccc2cc(C(C)C(=O)NC(=S)NC(CO)C(=O)O)ccc2c1 (centres unmarked) [Compound 7, 3-hydroxy-2-(3-(2-(6-methoxynaphthalen-2-yl)propanoyl)thioureido)propanoic acid] | 73.9 | 24.0±1.90 | 73.3 | 28.4±0.78 | 89.8 | 29.7±0.95 | 85.2 | 30.0±0.95 | moderate potency | 3.9±0.4^b seconds | 3.6±0.3^b seconds | 4.1±0.2^b seconds | 58.6 | – | – | – | – | – | – | –
4 | COc1ccc2cc(C(C)C(=O)NC(=S)NC(Cc3ccc(O)cc3)C(=O)O)ccc2c1 (centres unmarked) [Compound 8, 3-(4-hydroxyphenyl)-2-(3-(2-(6-methoxynaphthalen-2-yl)propanoyl)thioureido)propanoic acid] | 138.4 | 17.6±1.55 | 111.4 | 19.9±1.50 | 129.2 | 21.5±1.42 | 131.2 | 20.0±2.02 | highest anti-inflammatory activity | 5.0±0.2^a seconds | 4.9±0.3^a,b seconds | 5.9±0.5^a seconds | 84.3 | – | about 1.4 times | 1.3 | highest anti-inflammatory activity | – | – | –
5 | COC(=O)C(C)NC(=S)NC(=O)C(C)c1ccc2cc(OC)ccc2c1 (centres unmarked) [Compound 9, Methyl 2-(3-(2-(6-methoxynaphthalen-2-yl)propanoyl)thioureido)propanoate] | 4.7 | 30.8±1.09 | 11.6 | 42.2±3.50 | 21.1 | 44.2±3.94 | 32.3 | 41.3±2.99 | – | 3.7±0.2^b seconds | 3.8±0.3^b seconds | 4.0±0.3^b seconds | 57.1 | – | – | – | – | – | – | –
6 | COC(=O)CCNC(=S)NC(=O)C(C)c1ccc2cc(OC)ccc2c1 (centres unmarked) [Compound 10, Methyl 3-(3-(2-(6-methoxynaphthalen-2-yl)propanoyl)thioureido)propanoate] | 6.3 | 30.7±2.38 | 9.8 | 42.6±2.45 | 10.4 | 46.4±2.61 | 15.9 | 44.9±3.34 | – | 3.1±0.3^b seconds | 4.6±0.4^b seconds | 5.7±0.2^a,b seconds | 81.4 | – | – | – | – | – | – | –
7 | COC(=O)C(CO)NC(=S)NC(=O)C(C)c1ccc2cc(OC)ccc2c1 (centres unmarked) [Compound 11, Methyl 3-hydroxy-2-(3-(2-(6-methoxynaphthalen-2-yl)propanoyl)thioureido)propanoate] | 66.7 | 24.7±1.79 | 62.2 | 30.9±2.05 | 32.5 | 41.8±2.81 | 32.1 | 41.4±2.59 | moderate potency | 4.8±0.5^a seconds | 4.8±0.4^b seconds | 4.8±0.2^a,b seconds | 68.6 | – | – | – | – | – | – | –
8 | COc1ccc2cc(C(C)C(=O)NC(=S)NCCC(=O)NN)ccc2c1 (centres unmarked) [Compound 14, N-(3-hydrazinyl-3-oxopropylcarbamothioyl)-2-(6-methoxynaphthalen-2-yl)propanamide] | 40.3 | 27.3±0.88 | 32.9 | 37.4±3.58 | 44.9 | 39.2±2.42 | 26.5 | 42.6±1.61 | – | 6.1±0.4^a seconds | 5.6±0.2^a seconds | 5.7±0.3^a,b seconds | 81.4 | 6.1 ± 0.4 | – | – | lowest anti-inflammatory potency | – | – | –
9 | COc1ccc2cc(C(C)C(=O)NC(=S)NC(CO)C(=O)NN)ccc2c1 (centres unmarked) [Compound 15, N-(1-hydrazinyl-3-hydroxy–1-oxopropan-2-yl-carbamothioyl)-2-(6-methoxynaphthalen-2-yl)propanamide] | 120.0 | 19.5±0.50 | 96.8 | 23.2±2.05 | 88.2 | 30.1±2.58 | 80.5 | 31.0±1.68 | highest anti-inflammatory activity | – | 3.9±0.2^b seconds | 4.5±0.3^b seconds | 64.3 | 4.2 ± 0.4 | – | – | – | moderate potency | – | –
10 | COc1ccc2cc([C@H](C)C(=O)O)ccc2c1 [Naproxen, reference compound] | 100 | 21.5±2.03 | 100 | 22.5±1.22 | 100 | 27.6±0.85 | 100 | 26.7±1.90 | – | 5.3±0.3^a seconds | 6.2±0.4^a seconds | 7.0±0.4^a seconds | 100 | – | – | – | – | – | 58 | moderate gastric ulceration
